These results are taken from patent US5656726A, “Peptide inhibitors of urokinase receptor activity” (Chiron Corporation, priority 1995, dated 1997).

Like-named read-outs stand apart in the source and are kept apart here. Ends that are not written are not given here. Peptide text beside a SMILES is read from it. A value given as a limit tells only on which side of the number the result lay.

Experiment [1] has as its system SaOS-2 osteosarcoma cell line. To be noted: Rabbani et al.; cited from earlier work.
A further experiment has as its system U937 cells. As to conditions: Rabbani et al.; cited from earlier work.
For experiment [2], the target named is T1, substance P receptor ("SPR") (Homo sapiens, UniProt P25103).
T1 construct: expressed in transfected cells; host or cells: Sf9 insect cells
Description: Recovery of phage on Sf9 cells expressing substance P receptor (control). Type of experiment: binding. As to conditions: phage displaying the peptide. As for the experimental part: (§1) 3.) The phage selected in round 2 were reselected on SI9 cells expressing fluPAR (day 2 post-infection) as described for round 1 (2.8×10^10 phage on 10^6 St9 cells). The yield of binding phage from this round was 5.40% (1.5×10^9 pfu), indicating a substantial enrichment in binding phage. Sample phage from the urea eluate were cloned, and their DNAs isolated and sequenced. Binding was assayed against Sf9 cells expressing fluPAR, and Sf9 cells expressing substance P receptor ("SPR," as a control).

In experiment [3] the target is T2, full length huPAR ("fluPAR") (Homo sapiens, UniProt Q03405).
T2 construct: Sf9 cells expressing full length huPAR ("fluPAR", day 2 post infection); expressed in transfected cells; host or cells: Sf9 insect cells, infected (day 2 post infection)
Description: Recovery of phage on Sf9 cells expressing full length huPAR. Type of experiment: binding. As for the experimental part:
1.) 15 mer phage (2.5×10^10) prepared as described above were selected by coincubation with 10^6 Sf9 cells expressing full length huPAR ("fluPAR", day 2 post infection) at room temperature for 60 minutes in Grace's medium with 2% nonfat milk. Binding phage were eluted with 6M urea (pH 2.2), the pH neutralized by adding 2M Tris-HCl, and assayed. The yield of binding phage was 0.0013% (3.3×10^5 pfu). The phage were amplified on solid agar plates as plaques, eluted with Tris-buffered saline, and precipitated with polyethylene glycol.
as §1

Experiment [4] deals with T3, recombinant human urokinase receptor (truncated, soluble; suPAR) (Homo sapiens, UniProt Q03405).
T3 construct: expressed as a truncated, soluble molecule as described previously for mouse L-cells (Masucci et al., J Biol Chem (1991) 266:8655); made in house
Description: 125I-ATF competition binding on immobilized soluble recombinant human urokinase receptor. To be noted: synthesized peptide, read-out: Affinity.

In the next experiment the target is uPAR (Homo sapiens, UniProt Q03405). To be noted: Appella et al., cited from earlier work.
Where [5] appears, read: assay performed at 100 pM ATF, 0.3 μg/mL suPAR in 200 μL (starred values).
Setting [6] is: corrected to 100 pM ATF, 0.3 μg/mL suPAR conditions, corrections about 3 × from previous assay conditions.

T3 sequence (Q03405 23-299 limits assumed): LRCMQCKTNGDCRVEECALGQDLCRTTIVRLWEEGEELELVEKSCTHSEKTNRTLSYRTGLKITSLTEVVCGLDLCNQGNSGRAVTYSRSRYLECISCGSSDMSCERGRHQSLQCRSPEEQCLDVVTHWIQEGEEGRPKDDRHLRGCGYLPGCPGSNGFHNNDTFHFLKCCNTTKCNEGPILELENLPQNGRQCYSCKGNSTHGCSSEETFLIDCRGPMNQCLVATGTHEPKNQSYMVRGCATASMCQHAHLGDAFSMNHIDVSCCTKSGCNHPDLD
Chain of uPAR (Q03405 23-335): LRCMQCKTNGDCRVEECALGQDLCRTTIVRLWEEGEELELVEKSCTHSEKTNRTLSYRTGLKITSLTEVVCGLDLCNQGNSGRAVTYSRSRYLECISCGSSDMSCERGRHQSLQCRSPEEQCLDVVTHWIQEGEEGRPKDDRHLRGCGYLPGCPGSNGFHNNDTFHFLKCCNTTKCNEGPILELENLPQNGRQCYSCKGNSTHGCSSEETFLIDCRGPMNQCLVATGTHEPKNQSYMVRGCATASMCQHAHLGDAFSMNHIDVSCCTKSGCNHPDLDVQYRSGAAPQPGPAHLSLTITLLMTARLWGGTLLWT
T2 sequence (Q03405 23-335): as above
T1 sequence (P25103 whole entry, species assumed): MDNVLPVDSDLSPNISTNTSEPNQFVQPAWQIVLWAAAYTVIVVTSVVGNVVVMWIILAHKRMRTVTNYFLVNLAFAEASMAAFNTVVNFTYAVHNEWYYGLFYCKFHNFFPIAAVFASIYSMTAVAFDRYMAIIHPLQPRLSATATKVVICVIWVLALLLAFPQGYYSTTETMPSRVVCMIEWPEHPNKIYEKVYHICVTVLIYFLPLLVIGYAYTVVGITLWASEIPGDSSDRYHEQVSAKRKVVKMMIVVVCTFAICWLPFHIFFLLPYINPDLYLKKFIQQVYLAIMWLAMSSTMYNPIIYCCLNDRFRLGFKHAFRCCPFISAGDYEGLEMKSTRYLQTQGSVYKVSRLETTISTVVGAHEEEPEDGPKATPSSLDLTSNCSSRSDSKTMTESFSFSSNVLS

On to “fucosylated EGF-like domain: fucosylated EGF-like domain (uPA4-43, produced by cleavage from pro-uPA) (LHQVPSNCDCLNGGT(fucose)CVSNKYFSNIHWCNCPKKFGGQHCE; not fully specified; cysteine pairing not given here; UniProt P00749 24-63, looked up, fragment)”, for which the mitogenic activity entry in experiment [1] is “mitogenic”; in the experiment on U937 cells, “Neither fucosylated nor non-fucosylated EGF-like domain was mitogenic”.
With “AECLNGGTAVSNKYFSNIHWCN [Positive control, residues 13-32 of the EGFlike domain of urokinase (not selected from library)]”, the “% Recovery SPR” value in experiment [2] is recorded as 0.008%. Also, the “% Recovery huPAR” value in experiment [3] (phage displaying the peptide, Sf9 cells expressing fluPAR) was 6.8%. The “Specificity (uPAR/SPR)” value in experiment [3] (ratio of % recovery huPAR to SPR) amounted to 857.
Consider `CC(C)C[C@H](NC(=O)[C@H](CO)NC(=O)[C@H](CO)NC(=O)[C@H](Cc1ccc(O)cc1)NC(=O)[C@@H](NC(=O)[C@H](Cc1c[nH]cn1)NC(=O)[C@H](CCC(=O)O)NC(=O)[C@H](C)N)[C@@H](C)O)C(=O)N[C@@H](Cc1c[nH]c2ccccc12)C(=O)N[C@@H](CC(=O)O)C(=O)N[C@H](C(=O)N[C@@H](Cc1ccc(O)cc1)C(=O)N[C@@H](CO)C(=O)N1CCC[C@H]1C(=O)N[C@@H](CC(C)C)C(=O)N[C@@H](C)C(=O)N[C@@H](Cc1ccccc1)C(N)=O)[C@@H](C)O` (H-AEHTYSSLWDTYSPLAF-NH2), for which the Kd in experiment [4] (setting [5]) is 0.35 µM.
Consider `CC[C@H](C)[C@H](NC(=O)[C@H](CCCNC(=N)N)NC(=O)[C@H](Cc1c[nH]c2ccccc12)NC(=O)[C@H](CC(C)C)NC(=O)[C@H](CO)NC(=O)[C@H](CO)NC(=O)[C@H](CCC(=O)O)NC(=O)[C@H](C)N)C(=O)N[C@@H](Cc1ccccc1)C(=O)N[C@@H](CO)C(=O)N1CCC[C@H]1C(=O)N[C@@H](CO)C(=O)N[C@@H](C)C(=O)N[C@@H](CC(C)C)C(=O)N[C@@H](CCSC)C(=O)N[C@@H](CCSC)C(=O)N[C@@H](CO)C(N)=O` (H-AESSLWRIFSPSALMMS-NH2), for which the Kd in experiment [4] (setting [6]) came out at 7 µM.
For `CC(C)C[C@H](NC(=O)[C@H](CO)NC(=O)[C@H](CC(C)C)NC(=O)[C@@H]1CCCN1C(=O)[C@H](CCC(=O)O)NC(=O)[C@H](C)N)C(=O)N[C@@H](Cc1ccc(O)cc1)C(=O)N[C@@H](CCC(N)=O)C(=O)N[C@@H](CCCCN)C(=O)N[C@@H](CCCCN)C(=O)N[C@H](C(=O)N[C@@H](CC(C)C)C(=O)N[C@@H](CCCNC(=N)N)C(=O)N[C@@H](Cc1c[nH]cn1)C(=O)N[C@@H](Cc1ccccc1)C(=O)N[C@@H](C)C(=O)N[C@@H](CC(N)=O)C(N)=O)[C@@H](C)O` (H-AEPLSLYQKKTLRHFAN-NH2), the Kd in experiment [4] (setting [6]) was more than 50 µM.
Take `CSCC[C@H](NC(=O)[C@H](C)NC(=O)[C@H](CC(C)C)NC(=O)[C@@H]1CCCN1C(=O)[C@@H]1CCCN1C(=O)[C@H](CC(C)C)NC(=O)[C@H](CO)NC(=O)[C@H](Cc1ccc(O)cc1)NC(=O)[C@H](CC(C)C)NC(=O)[C@H](CO)NC(=O)[C@H](Cc1c[nH]c2ccccc12)NC(=O)[C@H](CC(C)C)NC(=O)[C@H](CC(=O)O)NC(=O)[C@H](CC(C)C)NC(=O)[C@@H]1CCCN1C(=O)[C@H](CCC(=O)O)NC(=O)[C@H](C)N)C(N)=O` (H-AEPLDLWSLYSLPPLAM-NH2): in experiment [4] (setting [6]), the Kd was 5 µM.
In the case of “uPA12-32: critical domain alone, residues 12-32 of the EGF-like domain of uPA (DCLNGGTCVSNKYFSNIHWCN; UniProt P00749 32-52, looked up, fragment)”, in the experiment with uPAR (J. Biol Chem (1987), read-out: affinity for uPAR), the Kd is 0.04 µM. Also, the “affinity relative to intact ATF (fold less)” value with uPAR is on record as “about 100 fold”.
Take `CC[C@H](C)[C@H](NC(=O)[C@H](CCC(=O)O)NC(=O)[C@H](C)N)C(=O)N[C@@H](CCCCN)C(=O)N[C@H](C(=O)N[C@@H](CC(=O)O)C(=O)N[C@@H](CCC(=O)O)C(=O)N[C@@H](CCCCN)C(=O)N[C@@H](CCSC)C(=O)NCC(=O)N[C@@H](CC(C)C)C(=O)N[C@@H](Cc1c[nH]c2ccccc12)C(=O)N[C@@H](CC(=O)O)C(=O)N[C@@H](CC(C)C)C(=O)N[C@@H](Cc1ccc(O)cc1)C(=O)N[C@@H](CO)C(=O)N[C@@H](CCSC)C(N)=O)[C@@H](C)O` (H-AEIKTDEKMGLWDLYSM-NH2): in experiment [4] (setting [5]), the Kd amounted to 25 µM.
